Measured values from PubChem BioAssay AID248 (DTP/NCI, 2004).
Values joined by “and” are separate entries in the source; they are usually repeats but may differ in a detail not shown here. Identical values can stand only once. Inconclusive results and toxic doses are left out. No stated cut-off is given here; in the data, active means T/C of 150% or more; inactive means T/C below 125%.

Test system: L1210 leukemia ip in BDF1 mice, survival T/C
Assay: NCI In Vivo Anticancer Drug Screen. Data for tumor model L1210 Leukemia (intraperitoneal) in B6D2F1 (BDF1) mice
Conditions: endpoint: mean survival time, higher = longer survival
Procedure, shortened: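 Tumor was transplanted into mice, which were then dosed with test compound or vehicle alone. Survival was recorded for each group, and the treated figure was expressed relative to the control figure.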

[1] = dose: 100.0 mg/kg/injection, schedule: Q01DX009 (ip), vehicle: Klucel (hydroxypropylcellulose) (HPC)
[2] = dose: 100.0 mg/kg/injection, schedule: Q04DX003 (ip), vehicle: Klucel (hydroxypropylcellulose) (HPC)
[3] = dose: 200.0 mg/kg/injection, schedule: Q01DX009 (ip), vehicle: Klucel (hydroxypropylcellulose) (HPC)
[4] = dose: 200.0 mg/kg/injection, schedule: Q04DX003 (ip), vehicle: Klucel (hydroxypropylcellulose) (HPC)
[5] = dose: 400.0 mg/kg/injection, schedule: Q04DX003 (ip), vehicle: Klucel (hydroxypropylcellulose) (HPC)
[6] = dose: 100.0 mg/kg/injection, schedule: Q01DX009 (ip), vehicle: saline with Tween-80
[7] = dose: 100.0 mg/kg/injection, schedule: Q04DX002 (ip), vehicle: saline with Tween-80
[8] = dose: 200.0 mg/kg/injection, schedule: Q01DX009 (ip), vehicle: saline with Tween-80
[9] = dose: 200.0 mg/kg/injection, schedule: Q04DX002 (ip), vehicle: saline with Tween-80
[10] = dose: 400.0 mg/kg/injection, schedule: Q01DX009 (ip), vehicle: saline with Tween-80
[11] = dose: 400.0 mg/kg/injection, schedule: Q04DX002 (ip), vehicle: saline with Tween-80
[12] = dose: 100.0 mg/kg/injection, schedule: Q01DX001 (ip), vehicle: carboxymethylcellulose (CMC)
[13] = dose: 200.0 mg/kg/injection, schedule: Q01DX001 (ip), vehicle: carboxymethylcellulose (CMC)
[14] = dose: 400.0 mg/kg/injection, schedule: Q01DX001 (ip), vehicle: carboxymethylcellulose (CMC)
[15] = dose: 200.0 mg/kg/injection, schedule: Q01DX001 (ip), vehicle: saline

Measured: T/C

Cc1cc(C)c(NS(=O)(=O)c2ccccc2)c(C)c1Br
inactive: dose: 75.0 mg/kg/injection, schedule: Q04DX003 (ip), vehicle: Klucel (hydroxypropylcellulose) (HPC) 95 % of control | dose: 150.0 mg/kg/injection, schedule: Q04DX003 (ip), vehicle: Klucel (hydroxypropylcellulose) (HPC) 94 % of control | dose: 300.0 mg/kg/injection, schedule: Q04DX003 (ip), vehicle: Klucel (hydroxypropylcellulose) (HPC) 94 % of control

OCCCNCc1ccccc1
inactive: dose: 100.0 mg/kg/injection, schedule: Q04DX003 (ip), vehicle: saline 94 % of control | dose: 200.0 mg/kg/injection, schedule: Q04DX003 (ip), vehicle: saline 103 % of control | dose: 400.0 mg/kg/injection, schedule: Q04DX003 (ip), vehicle: saline 97 % of control

Cc1[nH]c(N)nc(=S)c1CCC(=O)O
inactive: [1] 96 % of control | [2] 98 % of control | [3] 96 % of control | [4] 93 % of control | dose: 400.0 mg/kg/injection, schedule: Q01DX009 (ip), vehicle: Klucel (hydroxypropylcellulose) (HPC) 98 % of control | [5] 90 % of control

O=C(CCCCCCCCC(=O)N/N=C/c1ccccc1)N/N=C/c1ccccc1
inactive: dose: 100.0 mg/kg/injection, schedule: Q01DX001 (ip), vehicle: saline with Tween-80 96 % of control and 90 % of control | [6] 102 % of control and 92 % of control | [7] 93 % of control and 97 % of control | dose: 100.0 mg/kg/injection, schedule: Q04DX003 (ip), vehicle: saline with Tween-80 97 % of control | dose: 200.0 mg/kg/injection, schedule: Q01DX001 (ip), vehicle: saline with Tween-80 88 % of control | [8] 93 % of control and 97 % of control | [9] 95 % of control and 87 % of control | dose: 200.0 mg/kg/injection, schedule: Q04DX003 (ip), vehicle: saline with Tween-80 97 % of control | dose: 400.0 mg/kg/injection, schedule: Q01DX001 (ip), vehicle: saline with Tween-80 86 % of control and 91 % of control | [10] 91 % of control and 92 % of control | [11] 93 % of control and 90 % of control | dose: 400.0 mg/kg/injection, schedule: Q04DX003 (ip), vehicle: saline with Tween-80 92 % of control

CSc1ccc([PH+](c2ccc(SC)cc2)c2ccc(SC)cc2)cc1.CSc1ccc([PH+](c2ccc(SC)cc2)c2ccc(SC)cc2)cc1.[Cl][Hg][Cl]
inactive: dose: 50.0 mg/kg/injection, schedule: Q01DX009 (ip), vehicle: Klucel (hydroxypropylcellulose) (HPC) 89 % of control | [1] 92 % of control and 98 % of control | [3] 94 % of control and 103 % of control

O=C(O)C(O)C1CCCCC1 (stereo not given)
inactive: [12] 91 % of control | [13] 104 % of control | [14] 94 % of control

COc1ccc(CCC2(C=O)CNCN2)cc1 (stereo not given)
inactive: dose: 100.0 mg/kg/injection, schedule: Q01DX001 (ip), vehicle: other 98 % of control | dose: 200.0 mg/kg/injection, schedule: Q01DX001 (ip), vehicle: other 93 % of control

C=C1C(=O)OC2CC(C)C3CC(O)OC(O)C3(C)CC12 (stereo not given)
inactive: dose: 0.39 mg/kg/injection, schedule: Q01DX005 (ip), vehicle: water 108 % of control | dose: 0.78 mg/kg/injection, schedule: Q01DX005 (ip), vehicle: water 108 % of control | dose: 1.56 mg/kg/injection, schedule: Q01DX005 (ip), vehicle: water 106 % of control | dose: 3.13 mg/kg/injection, schedule: Q01DX005 (ip), vehicle: water 106 % of control | dose: 6.25 mg/kg/injection, schedule: Q01DX005 (ip), vehicle: water 104 % of control

C[C@]12CC[C@@H]3c4ccc(OC(=O)Cc5ccc(N(CCCl)CCCl)cc5)cc4CC[C@H]3[C@@H]1CC[C@@H]2OC(=O)Cc1ccc(N(CCCl)CCCl)cc1
inactive: dose: 100.0 mg/kg/injection, schedule: Q01DX001 (sc), vehicle: steriod suspending solution 97 % of control | dose: 200.0 mg/kg/injection, schedule: Q01DX001 (sc), vehicle: steriod suspending solution 102 % of control | dose: 400.0 mg/kg/injection, schedule: Q01DX001 (sc), vehicle: steriod suspending solution 102 % of control

CC(=O)C1(c2ccccc2)C(C)(C)C(C)(C)C(=O)C(C)(C)C1(C)C
inactive: dose: 100.0 mg/kg/injection, schedule: Q04DX002 (ip), vehicle: gum acacia 99 % of control | dose: 200.0 mg/kg/injection, schedule: Q04DX002 (ip), vehicle: gum acacia 96 % of control | dose: 400.0 mg/kg/injection, schedule: Q04DX002 (ip), vehicle: gum acacia 92 % of control

CCOC(=O)OCc1ccccc1
inactive: [7] 94 % of control | [9] 109 % of control | [11] 102 % of control

CC(=O)CCCC1C(=O)N(c2ccccc2)N(c2ccccc2)C1=O
inactive: [2] 102 % of control | [4] 101 % of control | [5] 96 % of control

CC(Cl)CN1c2ccccc2Sc2ccc(Cl)cc21 (stereo not given)
inactive: [12] 97 % of control | [13] 95 % of control | [14] 92 % of control

C1CC2CC1C1CNCC21 (stereo not given)
inactive: dose: 5.0 mg/kg/injection, schedule: Q01DX001 (ip), vehicle: saline 105 % of control | dose: 10.0 mg/kg/injection, schedule: Q01DX001 (ip), vehicle: saline 97 % of control | dose: 20.0 mg/kg/injection, schedule: Q01DX001 (ip), vehicle: saline 105 % of control | dose: 40.0 mg/kg/injection, schedule: Q01DX001 (ip), vehicle: saline 100 % of control | dose: 50.0 mg/kg/injection, schedule: Q04DX002 (ip), vehicle: Klucel (hydroxypropylcellulose) (HPC) 97 % of control | dose: 80.0 mg/kg/injection, schedule: Q01DX001 (ip), vehicle: saline 91 % of control | dose: 100.0 mg/kg/injection, schedule: Q04DX002 (ip), vehicle: Klucel (hydroxypropylcellulose) (HPC) 97 % of control

Nc1nc(Nc2ccc(NC=O)cc2)c(NC=O)c(=O)[nH]1
inactive: dose: 50.0 mg/kg/injection, schedule: Q01DX001 (ip), vehicle: saline 89 % of control | [15] 86 % of control

CCOC(=O)NP(=O)(NNc1ccccc1)NNc1ccccc1
inactive: dose: 50.0 mg/kg/injection, schedule: Q01DX001 (ip), vehicle: carboxymethylcellulose (CMC) 104 % of control | [12] 89 % of control | [13] 95 % of control | [14] 89 % of control

CCOC(=O)NC1CCc2ccccc21 (stereo not given)
inactive: dose: 100.0 mg/kg/injection, schedule: Q01DX001 (ip), vehicle: saline 98 % of control | [15] 104 % of control | dose: 400.0 mg/kg/injection, schedule: Q01DX001 (ip), vehicle: saline 93 % of control

COc1ccc(OC(C)OCCOCCO)cc1 (stereo not given)
inactive: dose: 100.0 mg/kg/injection, schedule: Q04DX002 (ip), vehicle: saline 107 % of control | dose: 200.0 mg/kg/injection, schedule: Q04DX002 (ip), vehicle: saline 93 % of control | dose: 400.0 mg/kg/injection, schedule: Q04DX002 (ip), vehicle: saline 107 % of control

CC(C)(Oc1ccc(Cl)cc1Cl)C(=O)O
inactive: dose: 100.0 mg/kg/injection, schedule: Q01DX009 (ip), vehicle: gum acacia 90 % of control

O=C1CCC(=O)N1CC(O)COc1ccccc1 (stereo not given)
inactive: [6] 101 % of control | [2] 93 % of control | [8] 101 % of control | [4] 97 % of control | [10] 110 % of control | [5] 106 % of control

CCC[CH2][Sn]1([CH2]CCC)[O]OC2([O]1)C1CC3CC(C1)CC2C3 (stereo not given)
inactive: dose: 3.0 mg/kg/injection, schedule: Q04DX002 (ip), vehicle: Klucel (hydroxypropylcellulose) (HPC) 90 % of control | dose: 6.0 mg/kg/injection, schedule: Q04DX002 (ip), vehicle: Klucel (hydroxypropylcellulose) (HPC) 108 % of control | dose: 12.0 mg/kg/injection, schedule: Q04DX002 (ip), vehicle: Klucel (hydroxypropylcellulose) (HPC) 108 % of control | dose: 12.5 mg/kg/injection, schedule: Q04DX002 (ip), vehicle: Klucel (hydroxypropylcellulose) (HPC) 101 % of control

S=c1[nH]n2c(=S)[nH]nc2s1
inactive: [2] 101 % of control | [4] 103 % of control | [5] 93 % of control
